Where “and” joins values, the source holds several entries; their conditions need not be identical. Equal entries are not always repeated. Toxic doses and inconclusive results are not listed. Cut-off read from the data, not from the text of the source: active = T/C of 150% or more; inactive = T/C below 125%.
Tested on: L1210 leukemia ip in BDF1 mice, survival T/C
Experiment: NCI In Vivo Anticancer Drug Screen. Data for tumor model L1210 Leukemia (intraperitoneal) in B6D2F1 (BDF1) mice
Conditions: endpoint: mean survival time, higher = longer survival
Description: The antitumor activity of compounds was measured in mice bearing transplantable tumors. Survival or tumor size were measured and the results are expressed as the measurement made in the treated group (T) divided by the measurement made in the vehicle treated control group (C). The tumor model used in this assay is L1210 Leukemia (intraperitoneal) in B6D2F1 (BDF1) mice

[1] = dose: 100.0 mg/kg/injection, schedule: Q01DX009 (ip), vehicle: saline
[2] = dose: 200.0 mg/kg/injection, schedule: Q01DX009 (ip), vehicle: saline
[3] = dose: 400.0 mg/kg/injection, schedule: Q01DX009 (ip), vehicle: saline
[4] = dose: 100.0 mg/kg/injection, schedule: Q01DX009 (ip), vehicle: Klucel (hydroxypropylcellulose) (HPC)
[5] = dose: 200.0 mg/kg/injection, schedule: Q01DX009 (ip), vehicle: Klucel (hydroxypropylcellulose) (HPC)
[6] = dose: 400.0 mg/kg/injection, schedule: Q01DX009 (ip), vehicle: Klucel (hydroxypropylcellulose) (HPC)
[7] = dose: 100.0 mg/kg/injection, schedule: Q04DX003 (ip), vehicle: Klucel (hydroxypropylcellulose) (HPC)
[8] = dose: 200.0 mg/kg/injection, schedule: Q04DX003 (ip), vehicle: Klucel (hydroxypropylcellulose) (HPC)
[9] = dose: 400.0 mg/kg/injection, schedule: Q04DX003 (ip), vehicle: Klucel (hydroxypropylcellulose) (HPC)
[10] = dose: 100.0 mg/kg/injection, schedule: Q01DX001 (ip), vehicle: saline with Tween-80
[11] = dose: 100.0 mg/kg/injection, schedule: Q01DX009 (ip), vehicle: saline with Tween-80
[12] = dose: 200.0 mg/kg/injection, schedule: Q01DX001 (ip), vehicle: saline with Tween-80
[13] = dose: 200.0 mg/kg/injection, schedule: Q01DX009 (ip), vehicle: saline with Tween-80
[14] = dose: 400.0 mg/kg/injection, schedule: Q01DX001 (ip), vehicle: saline with Tween-80
[15] = dose: 400.0 mg/kg/injection, schedule: Q01DX009 (ip), vehicle: saline with Tween-80
[16] = dose: 100.0 mg/kg/injection, schedule: Q04DX003 (ip), vehicle: saline with Tween-80
[17] = dose: 200.0 mg/kg/injection, schedule: Q04DX003 (ip), vehicle: saline with Tween-80
[18] = dose: 400.0 mg/kg/injection, schedule: Q04DX003 (ip), vehicle: saline with Tween-80

Measured: T/C

Cc1c[nH]c2nccnc12
inactive: dose: 100.0 mg/kg/injection, schedule: Q01DX009 (ip), vehicle: water 102 % of control | dose: 100.0 mg/kg/injection, schedule: Q04DX003 (ip), vehicle: water 108 % of control | dose: 200.0 mg/kg/injection, schedule: Q01DX009 (ip), vehicle: water 96 % of control | dose: 200.0 mg/kg/injection, schedule: Q04DX003 (ip), vehicle: water 98 % of control | dose: 400.0 mg/kg/injection, schedule: Q01DX009 (ip), vehicle: water 105 % of control | dose: 400.0 mg/kg/injection, schedule: Q04DX003 (ip), vehicle: water 101 % of control

CCOC1=C(C)C(=O)C1C (centres undefined)
inactive: [1] 111 % of control | [2] 101 % of control | [3] 113 % of control

CNC(=O)Nc1c(C)cccc1Cl
inactive: [4] 94 % of control | [5] 95 % of control | [6] 105 % of control

COc1ccccc1/C=N/NC(=O)CCCCCCCCC(=O)N/N=C/c1ccccc1OC
inactive: [4] 95 % of control | [5] 88 % of control | [6] 88 % of control

CCCCCCOC(=O)CCC(=O)OCCCCCC
inactive: [4] 97 % of control | [7] 92 % of control | [5] 101 % of control | [8] 92 % of control | [6] 97 % of control | [9] 97 % of control

O=NN(CCCl)C(=O)N1CCN(C(=O)N(CCCl)N=O)CC1
inactive: dose: 12.5 mg/kg/injection, schedule: Q01DX001 (ip), vehicle: carboxymethylcellulose (CMC) 112 % of control | dose: 25.0 mg/kg/injection, schedule: Q01DX001 (ip), vehicle: carboxymethylcellulose (CMC) 116 % of control | dose: 200.0 mg/kg/injection, schedule: Q01DX001 (ip), vehicle: carboxymethylcellulose (CMC) 95 % of control | dose: 300.0 mg/kg/injection, schedule: Q01DX001 (ip), vehicle: carboxymethylcellulose (CMC) 90 % of control | dose: 400.0 mg/kg/injection, schedule: Q01DX001 (ip), vehicle: carboxymethylcellulose (CMC) 87 % of control

Cc1ccc(/C=C/S(=O)(=O)c2ccccc2)cc1
inactive: dose: 100.0 mg/kg/injection, schedule: Q01DX001 (ip), vehicle: acetone 109 % of control | dose: 100.0 mg/kg/injection, schedule: Q01DX009 (ip), vehicle: acetone 87 % of control | dose: 100.0 mg/kg/injection, schedule: Q04DX003 (ip), vehicle: acetone 97 % of control | dose: 200.0 mg/kg/injection, schedule: Q01DX001 (ip), vehicle: acetone 98 % of control | dose: 200.0 mg/kg/injection, schedule: Q01DX009 (ip), vehicle: acetone 87 % of control | dose: 200.0 mg/kg/injection, schedule: Q04DX003 (ip), vehicle: acetone 103 % of control | dose: 400.0 mg/kg/injection, schedule: Q01DX001 (ip), vehicle: acetone 98 % of control | dose: 400.0 mg/kg/injection, schedule: Q01DX009 (ip), vehicle: acetone 88 % of control | dose: 400.0 mg/kg/injection, schedule: Q04DX003 (ip), vehicle: acetone 105 % of control

CC1(C)N=C(N)N=C(N)N1c1ccc(CC(=O)Nc2ccc(S(=O)(=O)F)cc2)cc1
inactive: dose: 0.8 mg/kg/injection, schedule: Q01DX009 (ip), vehicle: saline 95 % of control | dose: 4.0 mg/kg/injection, schedule: Q01DX009 (ip), vehicle: saline 95 % of control | dose: 20.0 mg/kg/injection, schedule: Q01DX009 (ip), vehicle: saline 97 % of control | [1] 97 % of control | dose: 500.0 mg/kg/injection, schedule: Q01DX009 (ip), vehicle: saline 94 % of control

Cc1ccc(N=Nc2ccc(C)cc2NC(=O)Nc2cc(C)ccc2C)cc1
inactive: [10] 102 % of control | [11] 98 % of control | dose: 100.0 mg/kg/injection, schedule: Q04DX002 (ip), vehicle: saline with Tween-80 87 % of control and 89 % of control | [12] 109 % of control | [13] 106 % of control | dose: 200.0 mg/kg/injection, schedule: Q04DX002 (ip), vehicle: saline with Tween-80 91 % of control | [14] 90 % of control | [15] 102 % of control | dose: 400.0 mg/kg/injection, schedule: Q04DX002 (ip), vehicle: saline with Tween-80 95 % of control and 89 % of control

CCCCSc1ccc2c(cc1=O)C(N)CCc1cc(OC)c(OC)c(OC)c1-2 (centres undefined)
inactive: dose: 12.5 mg/kg/injection, schedule: Q04DX002 (ip), vehicle: saline 104 % of control | dose: 25.0 mg/kg/injection, schedule: Q04DX002 (ip), vehicle: saline 88 % of control | dose: 50.0 mg/kg/injection, schedule: Q04DX002 (ip), vehicle: saline 95 % of control

CCOC(=O)NS(=O)(=O)c1ccccc1
inactive: [4] 100 % of control | [5] 101 % of control | [6] 87 % of control

OCC1(O)OCC(O)C(O)C1O (centres undefined)
inactive: [1] 89 % of control | [2] 94 % of control | [3] 90 % of control | dose: 800.0 mg/kg/injection, schedule: Q01DX009 (ip), vehicle: saline 90 % of control

N#Cc1ccc(Cc2ccc(C#N)cc2)cc1
inactive: [11] 95 % of control | [16] 95 % of control | [13] 97 % of control | [17] 101 % of control | [15] 100 % of control | [18] 106 % of control

C[n+]1ccccc1/C=C/c1cccc([N+](=O)[O-])c1
inactive: dose: 5.0 mg/kg/injection, schedule: Q04DX003 (ip), vehicle: saline with Tween-80 101 % of control | dose: 10.0 mg/kg/injection, schedule: Q04DX003 (ip), vehicle: saline with Tween-80 90 % of control | dose: 20.0 mg/kg/injection, schedule: Q04DX003 (ip), vehicle: saline with Tween-80 100 % of control

CC1=COC2(CC1)OC1CC3C4CCC5CC(O)CCC5(C)C4CCC3(C)C1C2C (centres undefined)
inactive: [10] 96 % of control | [12] 102 % of control | [14] 95 % of control

COc1ccc(CC(N)C(=O)O)cc1 (centres undefined)
inactive: [4] 103 % of control | [7] 101 % of control | [5] 92 % of control | [8] 101 % of control | [9] 106 % of control

COC1OC(CBr)C(OC(C)=O)C(OC(C)=O)C1OC(C)=O (centres undefined)
inactive: [16] 93 % of control | [17] 98 % of control | [18] 98 % of control

CS(=O)(=O)c1ccc(C(=N)N)cc1
inactive: [1] 93 % of control | [2] 97 % of control | [3] 95 % of control

CC(=O)Oc1cccc(/C=C2/N=C(C)OC2=O)c1
inactive: dose: 25.0 mg/kg/injection, schedule: Q04DX003 (ip), vehicle: Klucel (hydroxypropylcellulose) (HPC) 108 % of control | dose: 50.0 mg/kg/injection, schedule: Q04DX003 (ip), vehicle: Klucel (hydroxypropylcellulose) (HPC) 105 % of control | dose: 100.0 mg/kg/injection, schedule: Q01DX001 (ip), vehicle: saline 92 % of control | [7] 97 % of control | dose: 200.0 mg/kg/injection, schedule: Q01DX001 (ip), vehicle: saline 92 % of control | dose: 400.0 mg/kg/injection, schedule: Q01DX001 (ip), vehicle: saline 90 % of control

Nc1ccn(CCCOc2ccccc2)c(=O)n1
inactive: [10] 97 % of control | [12] 96 % of control | [14] 100 % of control

CCCCCCCCCC(=O)c1ccccc1
inactive: dose: 100.0 mg/kg/injection, schedule: Q04DX002 (ip), vehicle: Klucel (hydroxypropylcellulose) (HPC) 96 % of control | dose: 200.0 mg/kg/injection, schedule: Q04DX002 (ip), vehicle: Klucel (hydroxypropylcellulose) (HPC) 103 % of control | dose: 400.0 mg/kg/injection, schedule: Q04DX002 (ip), vehicle: Klucel (hydroxypropylcellulose) (HPC) 100 % of control

Reference: PubChem BioAssay AID248 (DTP/NCI, 2004)
